Assay results published in patent US11851411B2, “Herbicidal compounds” (SYNGENTA CROP PROTECTION AG, priority 2018, dated 2023).

Columns and labels:
Type in all cases: in vivo
[1] = tested on: Echinochloa crus-galli (ECHCG); test: Glasshouse herbicide test, pre-emergence; conditions: PRE Application; 500 g/h; evaluated after 13 days
Description: (§1) Seeds of a variety of test species are shown in standard soil in pots (Lolium perenne (LOLPE), Amaranthus retoflexus (AMARE), Abutilon theophrasti (ABUTH), Setaria faberi (SETFA), Echinochloa crus-galli (ECHCG), Ipomoea hederacea (IPOHE)). After cultivation for one day (pre-emergence) or after 8 days cultivation (post-emergence) under controlled conditions in a glasshouse (at 24/16° C., day/night; 14 hours light; 65% humidity), the plants are sprayed with an aqueous spray solution derived from the formulation of the technical active ingredient in acetone/water (50:50) solution containing 0.5% Tween 20 (polyoxyethelyene sorbitan monolaurate, CAS RN 9005-64-5). Compounds are applied at 500 g/h. The test plants are then grown in a glasshouse under controlled conditions in a glasshouse (at 24/16° C., day/night; 14 hours light; 65% humidity) and watered twice daily. After 13 days for pre and post-emergence, the test is evaluated for the percentage damage caused to the plant. The biological activities are shown in the following table on a five point scale (5=80-100%; 4=60-79%; 3=40-59%; 2=20-39%; 1=0-19%).

[2] = tested on: Abutilon theophrasti (ABUTH); test: Glasshouse herbicide test, pre-emergence; conditions: PRE Application; 500 g/h; evaluated after 13 days
Description: as §1

Setaria faberi (SETFA) [3] = test: Glasshouse herbicide test, pre-emergence; conditions: PRE Application; 500 g/h; evaluated after 13 days
Description: as §1

[4] = tested on: Amaranthus retoflexus (AMARE); test: Glasshouse herbicide test, pre-emergence; conditions: PRE Application; 500 g/h; evaluated after 13 days
Description: as §1

[5] = tested on: Ipomoea hederacea (IPOHE); test: Glasshouse herbicide test, pre-emergence; conditions: PRE Application; 500 g/h; evaluated after 13 days
Description: as §1

[6] = tested on: Echinochloa crus-galli (ECHCG); test: Glasshouse herbicide test, post-emergence; conditions: POST Application; 500 g/h; evaluated after 13 days
Description: as §1

[7] = tested on: Abutilon theophrasti (ABUTH); test: Glasshouse herbicide test, post-emergence; conditions: POST Application; 500 g/h; evaluated after 13 days
Description: as §1

Setaria faberi (SETFA) [8] = test: Glasshouse herbicide test, post-emergence; conditions: POST Application; 500 g/h; evaluated after 13 days
Description: as §1

[9] = tested on: Amaranthus retoflexus (AMARE); test: Glasshouse herbicide test, post-emergence; conditions: POST Application; 500 g/h; evaluated after 13 days
Description: as §1

[10] = tested on: Ipomoea hederacea (IPOHE); test: Glasshouse herbicide test, post-emergence; conditions: POST Application; 500 g/h; evaluated after 13 days
Description: as §1

[11] = tested on: Amaranthus retroflexus (AMARE); test: Comparative experiment, post-emergence phytotoxicity; conditions: POST Application; Rate 125 g/ha
Description: (§2) A comparative experiment is conducted to show the advantage provided by the compounds of the present invention. Thus the biological performance of representative compounds 1.001, 1.043, 2.002 & 2.024 of the present invention are compared with Compound C1, which is an aniline compound of the type referred to in WO2012/028579. Results are given as (%) phytotoxicity observed.

Setaria faberi (SETFA) [12] = test: as above; conditions: POST Application; Rate 125 g/ha
Description: as §2

CON(C)c1c(S(C)(=O)=O)ccc(C(=O)Nc2nnnn2C)c1Cl [Compound 1.043, 2-chloro-3-[methoxy(methyl)amino]-4-methylsulfonyl-N-(1-methyltetrazol-5-yl)benzamide]
100%: (%) phytotoxicity observed, AMARE [11]
90%: (%) phytotoxicity observed, SETFA (Setaria faberi (SETFA) [12])
5 (5=80-100%): percentage damage caused to the plant, five point scale, ECHCG [1] | percentage damage caused to the plant, five point scale, ABUTH [2] | percentage damage caused to the plant, five point scale, SETFA (Setaria faberi (SETFA) [3]) | percentage damage caused to the plant, five point scale, AMARE [4] | percentage damage caused to the plant, five point scale, IPOHE [5] | percentage damage caused to the plant, five point scale, ECHCG [6] | percentage damage caused to the plant, five point scale, ABUTH [7] | percentage damage caused to the plant, five point scale, SETFA (Setaria faberi (SETFA) [8]) | percentage damage caused to the plant, five point scale, AMARE [9] | percentage damage caused to the plant, five point scale, IPOHE [10]

CCCON(C)c1c(S(C)(=O)=O)ccc(C(=O)Nc2nnc(C)o2)c1Cl [Compound 2.024]
80%: (%) phytotoxicity observed, AMARE [11] | (%) phytotoxicity observed, SETFA (Setaria faberi (SETFA) [12])
5 (5=80-100%): percentage damage caused to the plant, five point scale, ECHCG [1] | percentage damage caused to the plant, five point scale, ABUTH [2] | percentage damage caused to the plant, five point scale, SETFA (Setaria faberi (SETFA) [3]) | percentage damage caused to the plant, five point scale, AMARE [4] | percentage damage caused to the plant, five point scale, IPOHE [5] | percentage damage caused to the plant, five point scale, ECHCG [6] | percentage damage caused to the plant, five point scale, ABUTH [7] | percentage damage caused to the plant, five point scale, SETFA (Setaria faberi (SETFA) [8]) | percentage damage caused to the plant, five point scale, AMARE [9] | percentage damage caused to the plant, five point scale, IPOHE [10]

CON(C(C)=O)c1c(C(F)(F)F)ccc(C(=O)Nc2nnnn2C)c1Cl [Compound 1.001, 3-[acetyl(methoxy)amino]-2-chloro-N-(1-methyltetrazol-5-yl)-4-(trifluoromethyl)benzamide]
5 (5=80-100%): percentage damage caused to the plant, five point scale, ECHCG [1] | percentage damage caused to the plant, five point scale, ABUTH [2] | percentage damage caused to the plant, five point scale, SETFA (Setaria faberi (SETFA) [3]) | percentage damage caused to the plant, five point scale, AMARE [4] | percentage damage caused to the plant, five point scale, IPOHE [5] | percentage damage caused to the plant, five point scale, ECHCG [6] | percentage damage caused to the plant, five point scale, ABUTH [7] | percentage damage caused to the plant, five point scale, SETFA (Setaria faberi (SETFA) [8]) | percentage damage caused to the plant, five point scale, AMARE [9] | percentage damage caused to the plant, five point scale, IPOHE [10]
90%: (%) phytotoxicity observed, AMARE [11] | (%) phytotoxicity observed, SETFA (Setaria faberi (SETFA) [12])

CON(C(C)=O)c1c(C(F)(F)F)ccc(C(=O)Nc2nnc(C)o2)c1C [Compound 2.002]
50%: (%) phytotoxicity observed, AMARE [11]
90%: (%) phytotoxicity observed, SETFA (Setaria faberi (SETFA) [12])
5 (5=80-100%): percentage damage caused to the plant, five point scale, ECHCG [1] | percentage damage caused to the plant, five point scale, ABUTH [2] | percentage damage caused to the plant, five point scale, SETFA (Setaria faberi (SETFA) [3]) | percentage damage caused to the plant, five point scale, AMARE [4] | percentage damage caused to the plant, five point scale, IPOHE [5] | percentage damage caused to the plant, five point scale, ECHCG [6] | percentage damage caused to the plant, five point scale, ABUTH [7] | percentage damage caused to the plant, five point scale, SETFA (Setaria faberi (SETFA) [8]) | percentage damage caused to the plant, five point scale, AMARE [9] | percentage damage caused to the plant, five point scale, IPOHE [10]

Cn1nnnc1NC(=O)c1ccc(C(F)(F)F)c(N)c1Cl [Compound C1, reference compound]
10%: (%) phytotoxicity observed, AMARE [11]
20%: (%) phytotoxicity observed, SETFA (Setaria faberi (SETFA) [12])
